Source: patent publication US20110300197A1, “FOOD PRODUCT” (Mars, Incorporation, priority 2008, published 2011)

Legend:
Assay type in all cases: cell-based, dog
Aerobes = assay: Canine plate biofilm assay (PBA): bacterial viable counts, aerobes; conditions: 48 hours, extracts at 500 μg/ml unless otherwise stated, vs no active control
Protocol: (§1) The assay requires fresh supragingival canine dental plaque and saliva for inoculation. The inoculum consists of pooled dental plaque and unfiltered saliva sampled from a group of 14 dogs, varying in age, breed and oral health status.
(§2) The plaque and saliva were resuspended in artificial saliva to form the inoculum of approximately 15% plaque and 30% saliva.
(§3) The plate biofilm assay (PBA) utilises a 24 well plate format in which biofilms, representative of canine dental plaque, are grown on hydroxyapatite (HA) discs. Prior to being introduced to the 24 well assay plate, each HA disc is preconditioned for 2 hours in a solution of 50% filter sterilised canine saliva in artificial canine saliva. […] Each HA disc, with the exception of those being used for biomass quantification, is placed into 500 μl PBS and vortex mixed for 30 seconds to remove biofilm growth from the disc into solution. […] Biofilm-covered HA discs that are being used for biomass quantification are removed from the 24 well assay plate and used directly in the crystal violet assay.
(§4) Viable numbers of bacteria were quantified using Columbia blood agar plates supplemented with haemin and menadione. Aerobes were counted after incubation for 2 days and anaerobes, including black pigmenting colonies (BPC), were counted after incubation at appropriate conditions for 9 days. […]

[1] = test system: trypsin-like protease activity; assay: Canine plate biofilm assay (PBA): trypsin-like protease activity (liquid BAPNA assay); conditions: 48 hours, extracts at 500 μg/ml unless otherwise stated, vs no active control
Protocol: as §1, §2
as §3, with “saliva. The preconditioning step stimulates the formation of a salivary pellicle on the HA disc surface.” for “saliva.”
Trypsin-like protease activity was measured using the liquid BAPNA assay, a colourimetric assay in which the amount of trypsin present in a sample is directly proportional to the intensity of the colour developed. […]

[2] = test system: black pigmenting colonies (BPC); assay: Canine plate biofilm assay (PBA): bacterial viable counts, black pigmenting colonies; conditions: 48 hours, extracts at 500 μg/ml unless otherwise stated, vs no active control
Protocol: as §1, §2, §3, §4

[3] = test system: biofilms representative of canine dental plaque; assay: Canine plate biofilm assay (PBA): biomass quantification (crystal violet assay); conditions: 48 hours, extracts at 500 μg/ml unless otherwise stated, OD595 vs no active control
Protocol: as §1, §2
as §3, with “saliva. The preconditioning step stimulates the formation of a salivary pellicle on the HA disc surface.” for “saliva.”
The total amount of biofilm grown on the HA discs was quantified using the crystal violet staining method. Biomass was represented as being directly proportional to the OD reading at 595 nm (0D595) of the samples compared to controls. […]

anaerobes = assay: Canine plate biofilm assay (PBA): bacterial viable counts, anaerobes; conditions: 48 hours, extracts at 500 μg/ml unless otherwise stated, vs no active control
Protocol: as §1, §2, §3, §4

Compound: [H]/N=C(\N/C(=N/[H])NCCCCCCNC(=N)NC(=N)Nc1ccc(Cl)cc1)Nc1ccc(Cl)cc1 [Chlorhexidine, chlorhexidine]
- Aerobe (Log 10 reduction) (Aerobes): 2.87 Log 10
- Protease (% reduction) [1]: 95.76%
- BPC (Log 10 reduction) [2]: 2.74 Log 10
- Biomass (% reduction) [3]: 94.40%
- Anaerobe (Log 10 reduction) (anaerobes): 2.48 Log 10
